Tests used:
hair and nail growth = assay: Hair density, anagen ratio, telogen ratio, nail growth and molecular analysis in rats (Example 4); format: in vivo, Sprague-Dawley rats
Procedure: Twenty-eight female Sprague-Dawley rats (8 weeks old) were randomized into one of the following groups: (i) group (control), shaved; (ii) group (ASI), shaved+ASI (4.14 mg/rat/day); (iii) group (ASI+MgB I), shaved+ASI (4.14 mg/rat/day)+MgB (48.7 μg/rat/day); and (iv) group (ASI+MgB II), shaved+ASI (4.14 mg/rat/day)+MgB (325 μg/rat/day). On day 42, compared with the control group, while hair density (p<0.05, p<0.01, and p<0.0001, respectively) and anagen ratio (p<0.01, p<0.01, and p<0.001) increased in the ASI, ASI+MgB I, and ASI+MgB II groups, telogen ratio decreased (p<0.01, p<0.01, and p<0.001, respectively). In the molecular analysis, VEGF, HGF, and KGF-2 increased in the ASI (p<0.01, p<0.01, and p<0.05, respectively), ASI+MgB I (p<0.0001 for all), and ASI+MgB II (p<0.0001 for all) groups when compared to the control group. […] SIRT-1 and β-catenin increased in the ASI (p<0.05 and p<0.01), ASI+MgB I (p<0.001 for both), and ASI+MgB II (p<0.0001 for both) groups. Wnt-1 increased in the ASI+MgB I (p<0.001) and ASI+MgB II (p<0.0001) groups.

Water solubility = format: physicochemical; settings: greater than biotin
[1] = preclinical models; compared to D-biotin; cited from earlier work
[2] = day 42, compared with the control group

Row | Substance | anagen ratio (hair and nail growth; [2]) | hair density (hair and nail growth; [2]) | telogen ratio (hair and nail growth; [2]) | SIRT-1 and β-catenin (hair and nail growth; molecular analysis) | VEGF, HGF, and KGF-2 (hair and nail growth; molecular analysis, compared to the control group) | nail growth (hair and nail growth; rats) | water solubility relative to biotin (Water solubility) | absorption and uptake in tissue [1]
1 | inositol-stabilized arginine silicate complex [ASI] | increased | increased | decreased | increased | increased | did not affect nail growth |  | 
2 | magnesium biotinate |  |  |  |  |  |  | about 40 times | superior absorption and greater uptake in tissue

— patent US20260130936A1, “COMPOSITIONS COMPRISING AN ACTIVE INGREDIENT MIXTURE COMPRISING SILICON AND BIOTIN AND METHODS OF USE” (Nutrition21, LLC, priority 2022, published 2026)
